Where a name gives a salt, the structure may show the parent alone.
Assays:
[1] = test system: Purkinje fiber of the right ventricular free wall; assay: Influence on Myocardial Action Potential Duration Time (APD75); format: cell-based, hybrid adult dog; settings: Canis lupus familiaris, 20 min, 20 minutes' incubation, 1 Hz, 37° C.; for percent prolongation of action potential duration (APD75) at 1 µg/mL: Dose 1.0 (μg, ml); for percent prolongation of action potential duration (APD75) at 3 µg/mL: Dose 3.0 (μg, ml); for percent prolongation of action potential duration (APD75) at 10 µg/mL: Dose 10.0 (μg, ml)
Method: To a hybrid adult dog, 30 mg/kg of pentobarbital was administered through a vein, and after being anesthetized, the heart was removed. Afterward, the right ventricular free wall of the heart was cut and taken out in a Tyrode solution.
The taken right ventricular free wall was fixed in an incubator at 37° C., and a nutritional solution (20 ml of the Tyrode solution) was refluxed.
In this isolated condition, myocardial action potential duration times (APD75) were measured before and after the administration of the respective compounds prepared in the above examples in Table A and d-sotalol as a control medicine, and APD75 (%) was calculated from the measured results in accordance with the formula: […]
A: APD75 before administration
B: APD75 after administration
Here, APD75 was measured as follows: A field stimulation of 1 Hz was given to the right ventricular free wall, and any variation of an action potential was depicted on an oscilloscope via a glass microelectrode (10 to 20 M.OMEGA.) thrust into a Purkinje fiber of the free wall and via an amplifier. Afterward, a waveform on the oscilloscope was analyzed by the use of a computer, and the time of from a point of the action potential generation to a point of 75% repolarization was measured. This measured time was regarded as the myocardial action potential duration time (APD75).
The compounds and d-sotalol shown in Table A were separately added to the refluxing nutritional solution (20 ml), and after 20 minutes' incubation, APD75 after the administration was calculated from the variation of the myocardial action potential duration time.
Incidentally, this test was carried out in accordance with a Sato et al's method [H. Sato, K. Hashimoto, Arzneimeittel Forschung, 34 (1), 3a, 376-380 (1984)].

[2] = test system: ventricular muscle (right ventricle); assay: Influence on Ventricular Muscle Refractory Period (ERP); format: in vivo, mongrel adult dog; settings: Canis lupus familiaris, iv, anesthetized dog, read-out: ERP (%; extensibility of refractory period); for change in vivo at 0.1 mg/kg: Dose 0.1 mg/kg i.v.; for change in vivo at 0.3 mg/kg: Dose 0.3 mg/kg i.v.; for change in vivo at 1 mg/kg: Dose 1.0 mg/kg i.v.; for change in vivo at 3 mg/kg: Dose 3.0 mg/kg i.v.
Method: Refractory periods were measured in the following manner before and after each of the compounds and d-sotalol shown an Table A was separately administered to a vein or a duodenum, and ERP (%; extensibility of refractory period) was calculated from the measured values in accordance with the following formula: […]
W: Refractory period after administration
Y: Refractory period before administration
To a mongrel adult dog, 30 mg/kg of pentobarbital was administered intravenously, and after being anesthetized, a pair of silver-silver chloride electrodes separated by 3 mm was sewn on an opened right ventricule, and electrical stimulation was given at an interval of 400 msec at a duration time of 4 msec under a current twice as much as the threshold. Afterward, a small amount of alcohol was injected into a sinus artery in order to extinguish a pacemaker activity, and the ventricular refractory period (ERP) was measured under ventricule pacing.
That is, 1 train comprised 10 stimulations, and an interval between two of the trains was usually 400 msec. At the time of the refractory period measurement, however, the above interval was shortened every 10 smec, and the interval between the trains at the time when reaction to the first stimulation of the train disappeared was regarded as the refractory period.
In this case, the electrical stimulation was fed in accordance with a program by a heart stimulation device (Diamedical Co., Ltd.; DHM-226-3).

Row | Structure (SMILES) | percent prolongation of action potential duration (APD75) at 1 µg/mL [1] [%] | percent prolongation of action potential duration (APD75) at 3 µg/mL [1] [%] | percent prolongation of action potential duration (APD75) at 10 µg/mL [1] [%] | change in vivo at 0.1 mg/kg [2] [%] | change in vivo at 0.3 mg/kg [2] [%] | change in vivo at 1 mg/kg [2] [%] | change in vivo at 3 mg/kg [2] [%] | percent prolongation of action potential duration (APD75) at 0.3 µg/mL ([1]; Dose 0.3 (μg, ml)) [%]
1 | Cn1c(N2CCN(CCCOc3ccc(F)cc3)CC2)cc(=O)n(C)c1=O [Compound 1, 1,3-dimethyl-6-[4-(3-[4-fluorophenoxy]propyl)piperazin-1-yl]-2,4(1H,3H)-pyrimidinedione.hydrochloride] | 17 | 22 | 30 | 6 | 12 | 15.8 | 24.3 | 
2 | Cn1c(N2CCN(CCCOc3ccc(C(=O)c4ccccc4)cc3)CC2)cc(=O)n(C)c1=O [Compound 9] | 6 | 21 | 30 | 5.6 | 5.6 | 11.1 | 16.7 | 
3 | Cn1c(N2CCN(CCCOc3cccc(C#N)c3)CC2)cc(=O)n(C)c1=O [Compound 12] | 4 | 11 | 28 | 0 | 2.1 | 4.3 | 17 | 
4 | Cn1c(N2CCN(CCCOc3ccccc3C#N)CC2)cc(=O)n(C)c1=O [Compound 16] | 6 | 14 | 23 | 0 | 0 | 6.7 | 10 | 
5 | CC(=O)c1ccccc1OCCCN1CCN(c2cc(=O)n(C)c(=O)n2C)CC1 [Compound 17, 1,3-dimethyl-6-[4-(3-[2-acetylphenoxy)propyl)piperazin-1-yl]-2,4(1H,3H)-pyrimidinedione] | 28 | 43 | 59 | 3.5 | 8.3 | 13.5 | 17.3 | 
6 | CC(=O)Nc1ccccc1OCCCN1CCN(c2cc(=O)n(C)c(=O)n2C)CC1 [Compound 18] |  | 11 | 22 |  | 6.3 | 12.5 |  | 
7 | CC(C)C(=O)c1ccccc1OCCCN1CCN(c2cc(=O)n(C)c(=O)n2C)CC1 [Compound 25] | 13 | 26 |  | 0 | 0 | 0 | 7.6 | 
8 | Cn1c(N2CCN(CCCOc3ccccc3C(=O)CCc3ccccc3)CC2)cc(=O)n(C)c1=O [Compound 31] | 13 | 16 |  | 0 | 0 | 6.3 | 12.9 | 
9 | Cn1c(N2CCN(CCCOc3ccccc3N=[N+]=[N-])CC2)cc(=O)n(C)c1=O [Compound 36] |  | 17 |  | 0 | 7.1 | 7.1 | 14.3 | 
10 | Cn1c(N2CCN(CCCOc3ccccc3C(=O)C3CCCC3)CC2)cc(=O)n(C)c1=O [Compound 39] |  | 26 | 48 |  |  |  |  | 
11 | Cn1c(N2CCN(CCCOc3ccc(Cl)cc3Cl)CC2)cc(=O)n(C)c1=O [Compound 43] |  | 13 | 18 | 0 | 0 | 7.7 | 19.3 | 
12 | Cn1c(N2CCN(CCCOc3ccc(Cl)cc3S(C)(=O)=O)CC2)cc(=O)n(C)c1=O [Compound 50] | 6 | 15 | 26 | 0 | 5.6 | 5.6 | 11.1 | 
13 | Cn1c(N2CCN(CCCOc3ccc(Cl)cc3C(=O)c3ccccc3)CC2)cc(=O)n(C)c1=O [Compound 51] | 19 | 24 |  | 0 | 6.3 | 6.3 | 12.5 | 11
14 | Cn1c(N2CCN(CCCOc3ccc(Cl)cc3C(=O)c3ccccn3)CC2)cc(=O)n(C)c1=O [Compound 52] | 9 | 14 | 18 |  |  |  |  | 
15 | Cn1c(N2CCN(CCCOc3ccc(C(=O)c4ccccc4)cc3F)CC2)cc(=O)n(C)c1=O [Compound 58] | 19 | 29 | 36 |  |  |  |  | 
16 | Cn1c(N2CCN(CCOc3ccccc3)CC2)cc(=O)n(C)c1=O [Compound 65, 1,3-dimethyl-6-[4-(2-phenoxyethyl)piperazin-1-yl]-2,4(1H,3H)-pyrimidinedione.hydrochloride] |  | 14 | 17 | 0 | 0 | 0 | 0 | 
17 | Cn1c(N2CCN(CCc3ccccc3)CC2)cc(=O)n(C)c1=O [Compound 88, 1,3-dimethyl-6-[4-(2-phenylethyl)-piperazin-1-yl]-2,4(1H,3H)-pyrimidinedione.hydrochloride] |  | 26 | 49 | 2 | 6 | 11.7 |  | 
18 | Cn1c(N2CCN(CCCc3ccccc3)CC2)cc(=O)n(C)c1=O [Compound 89, 1,3-dimethyl-6-[4-(3-phenylpropyl)piperazin-1-yl]-2,4(1H,3H)-pyrimidinedione.hydrochloride] | 15 | 26 | 31 | 0 | 5.7 | 9.7 | 14 | 
19 | Cn1c(NCCN(CCO)CCCc2ccccc2)cc(=O)n(C)c1=O [Compound 120, 1,3-dimethyl-6-[2-(N-[2-hydroxyethyl]-3-phenylpropylamino)ethylamino]-2,4(1H,3H)-pyrimidinedione.oxalate] | 6 | 14 | 26 |  |  |  |  | 
20 | CCN(CCCc1ccccc1)CCNc1cc(=O)n(C)c(=O)n1C [Compound 121, 1,3-dimethyl-6-[2-(N-ethyl-3-phenylpropylamino)ethylamino]-2,4(1H,3H)-pyrimidinedione.oxalate] | 9 | 14 | 16 |  |  |  |  | 

Reference: US5332739A, “Pyrimidinedione derivatives and antiarrhythmic agents containing same” (Mitsui Toatsu Chemicals, Incorporated, priority 1990, dated 1994)
